pIC50: −log10 of the molar value. Like-named read-outs stand apart in the source and are kept apart here. Numbered stars: 1 amine (or outer) side, 2 acyl side, 3 side chain; on linkers, the order of the positions; unused ones are H or OH. Bridge positions count the residues as written; N and C are the ends. Square brackets hold non-standard residues; d marks the D form. Peptide text beside a SMILES is read from it. Orn = NCCC[C@H](N)C(=O)O; X1 = O=C(CCC[*:2])[*:1]; Mpa = O=C(O)CCS
Target: T1, Human recombinant PTEN (Homo sapiens, UniProt P60484)
T1 construct: host or cells: Escherichia coli
T1 sequence (P60484 whole entry): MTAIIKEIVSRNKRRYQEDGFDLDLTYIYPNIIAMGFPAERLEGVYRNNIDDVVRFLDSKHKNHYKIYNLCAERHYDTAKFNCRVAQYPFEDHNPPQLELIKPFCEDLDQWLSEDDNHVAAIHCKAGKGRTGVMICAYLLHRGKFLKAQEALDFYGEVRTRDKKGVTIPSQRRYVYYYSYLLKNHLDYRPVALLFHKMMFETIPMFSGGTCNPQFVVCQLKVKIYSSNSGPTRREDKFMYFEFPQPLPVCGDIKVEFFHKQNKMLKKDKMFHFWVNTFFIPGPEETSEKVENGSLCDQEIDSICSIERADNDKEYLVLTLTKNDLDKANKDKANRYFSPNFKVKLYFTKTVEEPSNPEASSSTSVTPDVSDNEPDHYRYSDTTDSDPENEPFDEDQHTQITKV
Experiment: PTEN inhibitor screen: conversion of DiFMUP to DiFMU by recombinant PTEN, spectrofluorometric
Type: biochemical
Method: Candidate PTEN inhibitor compounds were identified and screened for PTEN inhibition in vitro. Human recombinant PTEN purified from Escherichia coli was assayed for conversion of synthetic phosphotyrosine analog 6,8-difluoro-4-methylumbelliferyl phosphate (DiFMUP) to 6,8-difluoro-7-hydroxy-4-methylcoumarin (DiFMU) in the presence of the various candidate PTEN inhibitors. The reaction was carried out at 37° C. for 1 hour in a reaction mixture containing 100 μM of DiFMUP, 50 mM Tris-HCl (pH 8.5), 0.01% bovine serum albumin, 1 mM dithiothreitol, and 2 mM ethylenediaminetetraacetic acid. PTEN activity was measured by spectrofluorometric quantitation of increasing DiFMU over time.

[1] = 100 μM DiFMUP, 37° C., 1 hour, pH 8.5, read-out: IC50
[2] = candidate PTEN inhibitor at 10 μM, 100 μM DiFMUP, 37° C., 1 hour, pH 8.5, read-out: % Inhibition
[3] = candidate PTEN inhibitor at 10 μM, 100 μM DiFMUP, 37° C., 1 hour, pH 8.5

With CO[C@H]1C[C@@H]2CC[C@@H](C)[C@@](O)(O2)C(=O)C(=O)N2CCCC[C@H]2C(=O)O[C@H]([C@H](C)C[C@@H]2CC[C@@H](OCCO)[C@H](OC)C2)CC(=O)[C@H](C)/C=C(\C)[C@@H](O)[C@@H](OC)C(=O)[C@H](C)C[C@H](C)/C=C/C=C/C=C/1C [Everolimus] the pIC50 [1] was < 5.00 and the inhibition at 10 µM [2] was 33%.

CC(C)(C)CC(C)(C)c1cc(Cc2cc(C(C)(C)CC(C)(C)C)cc(-n3nc4ccccc4n3)c2O)c(O)c(-n2nc3ccccc3n2)c1 [bisoctrizole] was tested, and the pIC50 [1] was < 5.00 and the inhibition at 10 µM [2] was 5%.

With CO[C@H]1C[C@@H]2CC[C@@H](C)[C@@](O)(O2)C(=O)C(=O)N2CCCC[C@H]2C(=O)O[C@H]([C@H](C)C[C@@H]2CC[C@@H](O)[C@H](OC)C2)CC(=O)[C@H](C)/C=C(\C)[C@@H](O)[C@@H](OC)C(=O)[C@H](C)C[C@H](C)/C=C/C=C/C=C/1C [sirolimus] the pIC50 [1] was < 5.00 and the inhibition at 10 µM [2] was 3%.

For CCCCCCCC/C=C\CCCCCCCC(=O)O[C@H](COC(=O)CCCCCCCCCCCCCCC)COP(=O)(O)OCC(O)CO (mixture of isomers) [1-palmitoyl-2-oleoyl-sn-glycero-3-(phospho-rac-(1-glycerol))], the pIC50 [1] was 5.75 and the inhibition at 10 µM [2] was 85%.

In the case of Cc1ccccc1-c1cc(N2CCN(C)CC2)ncc1N(C)C(=O)C(C)(C)c1cc(C(F)(F)F)cc(C(F)(F)F)c1 [netupitant], the pIC50 [1] was < 5.00 and the inhibition at 10 µM [2] was 12%.

Work on CC1(C)C(/C=C/C=C/C=C/C=C2\N(CCCCS(=O)(=O)O)c3ccc4ccccc4c3C2(C)C)=[N+](CCCCS(=O)(=O)[O-])c2ccc3ccccc3c21 [indocyanine green acid form] yielded a pIC50 [1] of 5.53 and an inhibition at 10 µM [2] of 74%.

For COc1ccc(CC2c3cc(OC)c(OC)cc3CC[N+]2(C)CCC(=O)OCCCCCOC(=O)CC[N+]2(C)CCc3cc(OC)c(OC)cc3C2Cc2ccc(OC)c(OC)c2)cc1OC (stereo not shown) [atracurium besylate], the pIC50 [1] was < 5.00 and the inhibition at 10 µM [2] was 16%.

With CC(C)c1nc(CN(C)C(=O)N[C@@H](CCN2CCOCC2)C(=O)N[C@H](CC[C@H](Cc2ccccc2)NC(=O)OCc2cncs2)Cc2ccccc2)cs1 [Cobicistat] the pIC50 [1] was < 5.00 and the inhibition at 10 µM [2] was 24%.

CO[C@H]1O[C@H](COS(=O)(=O)O)[C@@H](O[C@@H]2O[C@@H](C(=O)O)[C@@H](O[C@H]3O[C@H](COS(=O)(=O)O)[C@@H](O[C@@H]4O[C@H](C(=O)O)[C@@H](O[C@H]5O[C@H](COS(=O)(=O)O)[C@@H](O)[C@H](O)[C@H]5NS(=O)(=O)O)[C@H](O)[C@H]4O)[C@H](OS(=O)(=O)O)[C@H]3NS(=O)(=O)O)[C@H](O)[C@H]2OS(=O)(=O)O)[C@H](O)[C@H]1NS(=O)(=O)O [Fondaparinux] gave a pIC50 [1] of 5.56 and an inhibition at 10 µM [2] of 80%.

For CCC1=C[C@@H]2CN(C1)Cc1c([nH]c3ccccc13)[C@@](C(=O)OC)(c1cc3c(cc1OC)N(C)[C@H]1[C@@](O)(C(=O)OC)[C@H](OC(C)=O)[C@]4(CC)C=CCN5CC[C@]31[C@@H]54)C2 [vinorelbine], the pIC50 [1] was < 5.00 and the inhibition at 10 µM [2] was 19%.

In the case of O=C(O)CN(CC(=O)O)Cc1cc2c(cc1O)Oc1cc(O)c(CN(CC(=O)O)CC(=O)O)cc1C21OC(=O)c2ccccc21 [Oftasceine], the pIC50 [1] was < 5.00 and the inhibition at 10 µM [2] was 37%.

With Cyanocobalamin the pIC50 [1] was 5.51 and the “% Inhibition” value [3] was 85%.

In the case of Clc1ccc(C(c2ccccc2Cl)C(Cl)Cl)cc1 (stereo not shown) [mitotane], the pIC50 [1] was < 5.00 and the inhibition at 10 µM [2] was 13%.

For CCCCCCCCCCCCCC(=O)OCC(COP(=O)(O)OCC(O)CO)OC(=O)CCCCCCCCCCCCC (racemic) [DL-dimyristoylphosphatidylglycerol], the pIC50 [1] was 5.40 and the “% Inhibition” value [3] was 71%.

Molecule O=C(OC[C@H]1O[C@@H](OC(=O)c2cc(O)c(O)c(OC(=O)c3cc(O)c(O)c(O)c3)c2)[C@H](OC(=O)c2cc(O)c(O)c(OC(=O)c3cc(O)c(O)c(O)c3)c2)[C@@H](OC(=O)c2cc(O)c(O)c(OC(=O)c3cc(O)c(O)c(O)c3)c2)[C@@H]1OC(=O)c1cc(O)c(O)c(OC(=O)c2cc(O)c(O)c(O)c2)c1)c1cc(O)c(O)c(OC(=O)c2cc(O)c(O)c(O)c2)c1 [tannic acid] has a pIC50 [1] of 6.47 and an inhibition at 10 µM [2] of 92%.

In the case of C=C1CC[C@H]2[C@@H](/C=C(\C)C(=O)[C@@]3(OC(C)=O)C[C@H](C)[C@H](OC(=O)c4ccccc4)[C@@H]3[C@H]1OC(C)=O)C2(C)C [diacetyl benzoyl lathyrol], the pIC50 [1] was < 5.00 and the “% Inhibition” value [3] was 25%.

C[C@@H]1C/C=C/C=C/C=C/C=C/[C@H](O[C@@H]2O[C@H](C)[C@@H](O)[C@H](N)[C@@H]2O)C[C@@H]2O[C@](O)(C[C@@H](O)C[C@H]3O[C@@H]3/C=C/C(=O)O1)C[C@H](O)[C@H]2C(=O)O [natamycin] was tested, and the pIC50 [1] was < 5.00 and the inhibition at 10 µM [2] was 3%.

For Candicidin, the pIC50 [1] was 5.79 and the “% Inhibition” value [3] was 91%.

For C[C@H](N)C(=O)NCC(=O)N[C@H]1CSSC[C@@H](C(=O)O)NC(=O)[C@H](CO)NC(=O)[C@H]([C@@H](C)O)NC(=O)[C@H](Cc2ccccc2)NC(=O)[C@H]([C@@H](C)O)NC(=O)[C@H](CCCCN)NC(=O)[C@H](Cc2c[nH]c3ccccc23)NC(=O)[C@H](Cc2ccccc2)NC(=O)[C@H](Cc2ccccc2)NC(=O)[C@H](CC(N)=O)NC(=O)[C@H](CCCCN)NC1=O [somatostatin], the pIC50 was < 5.00 and the inhibition at 10 µM (pH 8.5) was 5%.

For CCOc1ccc(C[C@H]2NC(=O)CCSSC[C@@H](C(=O)N3CCC[C@H]3C(=O)N[C@@H](CCCN)C(=O)NCC(N)=O)NC(=O)[C@H](CC(N)=O)NC(=O)[C@H]([C@@H](C)O)NC(=O)[C@H]([C@@H](C)CC)NC2=O)cc1 [atosiban] ([Mpa][dY](Et)ITNCP[Orn]G-NH2; disulfide 1-6), the pIC50 was < 5.00 and the inhibition at 10 µM [2] was 12%.

For O=C1CCCC(=O)C1C(=O)c1ccc(C(F)(F)F)cc1[N+](=O)[O-] [nitisinone], the pIC50 [1] was < 5.00 and the inhibition at 10 µM [2] was 1%.

For CC(C)c1c(C(=O)Nc2ccccc2)c(-c2ccccc2)c(-c2ccc(F)cc2)n1CC[C@@H](O)C[C@@H](O)CC(=O)O [atorvastatin], the pIC50 [1] was < 5.00 and the inhibition at 10 µM [2] was 4%.

With Cc1cc2nc3c(=O)[nH]c(=O)nc-3n(C[C@H](O)[C@H](O)[C@H](O)COP(=O)(O)OP(=O)(O)OC[C@H]3O[C@@H](n4cnc5c(N)ncnc54)[C@H](O)[C@@H]3O)c2cc1C [flavin adenine dinucleotide] the pIC50 [1] was < 5.00 and the inhibition at 10 µM [2] was 13%.

In the case of hyaluronic acid, the pIC50 [1] was < 5.00 and the “% Inhibition” value [3] was 2%.

With C#C[C@]1(O)CC[C@H]2[C@@H]3CCC4=CC(=O)CC[C@@H]4[C@H]3C(=C)C[C@@]21CC [etonogestrel] the pIC50 [1] was < 5.00 and the inhibition at 10 µM [2] was 2%.

In the case of CC[C@H](C)[C@@H]1NC(=O)[C@H](Cc2ccc(OC)cc2)NC(=O)CCCSC[C@@H](C(=O)N2CCC[C@H]2C(=O)N[C@@H](CC(C)C)C(=O)NCC(N)=O)NC(=O)[C@H](CC(N)=O)NC(=O)[C@H](CCC(N)=O)NC1=O [carbetocin] (Y(Me)IQNCPLG-NH2; linker N-5 via X1), the pIC50 [1] was < 5.00 and the inhibition at 10 µM [2] was 1%.

In the case of Cc1cc(-c2ccc(/N=N/c3c(S(=O)(=O)O)cc4cc(S(=O)(=O)O)cc(N)c4c3O)c(C)c2)ccc1/N=N/c1c(S(=O)(=O)O)cc2cc(S(=O)(=O)O)cc(N)c2c1O [trypan blue free acid], the pIC50 [1] was 5.36 and the inhibition at 10 µM [2] was 79%.

C[C@@H]1CC(=O)NN=C1c1ccc(NN=C(C#N)C#N)cc1 [Levosimendan] was tested, and the pIC50 [1] was < 5.00 and the inhibition at 10 µM [2] was 24%.

For CCc1c(Cl)c(O)c(Cl)c(O)c1C(=O)O[C@H]1[C@H](O)[C@H](OC)[C@H](OC/C2=C\C=C\C[C@H](O)/C(C)=C/[C@H](CC)[C@@H](O[C@@H]3OC(C)(C)[C@@H](OC(=O)C(C)C)[C@H](O)[C@@H]3O)/C(C)=C/C(C)=C/C[C@@H]([C@@H](C)O)OC2=O)O[C@@H]1C [fidaxomicin], the pIC50 [1] was < 5.00 and the inhibition at 10 µM [2] was 11%.

With CC(=O)O[C@H]1C[C@@H]2CC[C@@H]3[C@H](CC[C@@]4(C)[C@H]3C[C@H]([N+]3(C)CCCCC3)[C@@H]4OC(C)=O)[C@@]2(C)C[C@@H]1[N+]1(C)CCCCC1 [pancuronium] the pIC50 [1] was < 5.00 and the inhibition at 10 µM [2] was 11%.

With CCC[C@H](NC(=O)[C@@H]1[C@H]2CCC[C@H]2CN1C(=O)[C@@H](NC(=O)[C@@H](NC(=O)c1cnccn1)C1CCCCC1)C(C)(C)C)C(=O)C(=O)NC1CC1 [telaprevir] the pIC50 was < 5.00 and the inhibition at 10 µM (pH 8.5) was 3%.

Verteporfin was tested, and the pIC50 [1] was 5.24 and the “% Inhibition” value [3] was 98%.

Source: patent US12036230B2, “PTEN inhibitors for treatment and prevention of bone marrow loss” (NISIBIS, LLC-S, priority 2020, dated 2024)
